This is an account of results in PubChem BioAssay AID1159565 (GlaxoSmithKline (GSK), 2015).

Active and inactive are the calls of the source. How the calls were made is not given here. Bounds are passed on as bounds.

Usually IC50 stands for the concentration at which inhibition is half-maximal.

The first assay has as its system T. cruzi-infected H9C2 cardiomyocytes, high-content imaging. In words: intracellular T. cruzi amastigote inhibition, imaging, H9C2 host cardiomyocytes, host toxicity (AID 1159565).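 Further: infected cells incubated 72 h after plating.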
Details: not given
For `COc1ccc(S(=O)(=O)Nc2ccc(CN3CCN(C(=O)c4cccc(C#N)c4)CC3)cc2)cc1`, the IC50 is 1 µM. On the same count and under the same terms, as for `N#Cc1cc(-c2ccnc(Nc3cccc(CN4CCOCC4)c3)n2)ccc1NCCN`, the figure is 32 µM; as for `Cc1nc(C(=O)Nc2ccc3c(c2)OCO3)nn1-c1ccc(Cl)cc1`, 1.6 µM; as for `CC(C)(C)C(O)(CCc1ccc(Cl)cc1)Cn1cncn1` (configuration not stated), 0.25 µM. The same measure, in the same setting: with `COc1ccc(S(=O)(=O)Nc2ccccc2OC)cc1NC(=O)CCCc1c[nH]c2ccccc12` the figure was 1.3 µM; with `O=C(C1CCCCC1)N1CCN(c2nnc(-c3ccccc3)c3ccccc23)CC1`, 0.63 µM. Regarding `COCCn1cnc2cc(NC(=O)C3CCCCC3)cc(C(=O)N3CCc4sccc4C3)c21`, the IC50 was 32 µM. In the case of `CCN(Cc1nc2ccc(C(=O)N3CCN(c4ncccn4)CC3)cc2[nH]1)C1CCCc2cccnc21` (configuration not stated), the IC50 is 13 µM. Same read-out and setting: with `Cc1nn(-c2ccccc2)nc1CNC(=O)CN(Cc1ccccn1)Cc1ccccn1` the figure was 10 µM; with `Cc1cccnc1CN1CCN(CCCOc2ccc(-c3ccc(C(N)=O)cc3)cc2)CC1`, 20 µM.

For `COc1ccc(C(=O)Nc2c(C)nn(COc3cccc(C(F)(F)F)c3)c2C)cc1`, the IC50 is 40 µM. In the case of `c1ccc(Nc2nc3ccccc3[nH]2)nc1`, the IC50 is 25 µM. As for `CCN(C)Cc1ccc(N2CCC(NS(=O)(=O)c3ccc4c(c3)CCO4)CC2)nc1`, the IC50 was 1.3 µM. Same read-out and setting: as for `COc1ccc2ncc(F)c(CCN3CC[C@@H](NC(=O)c4cc5c(s4)CCC5)[C@@H](O)C3)c2n1`, the figure is 0.13 µM; as for `COc1ccccc1C=CCN1C[C@H]2CCC[C@@H](C1)C2(O)c1cccnc1` (some centres not stated), 0.04 µM; as for `O=C(NCC(c1cccnc1)N1CCc2ccccc2C1)C(=O)Nc1cccc(Cl)c1` (configuration not stated), 0.079 µM. In the case of `CS(=O)(=O)NC1CCC(Oc2cc3cnccc3cc2-c2ccsc2)CC1` (configuration not stated), the half-inhibitory concentration (IC50) was 0.16 µM.

Turning to `COc1ccc(CNc2cc(C3CC3)nc(-c3nccn3C)n2)cc1`, the 50% inhibitory concentration (IC50) is 0.79 µM.

With `CCN(CC)S(=O)(=O)c1ccc(OC)c(NC(=O)c2ccc([N+](=O)[O-])s2)c1`, the IC50 is 0.16 µM. Still for that read-out and setting: as for `COc1ccc2nccc(NC(=O)C3(OC)CCN(CC(O)c4ccc5c(c4)OCCO5)CC3)c2n1` (configuration not stated), the figure is 0.32 µM; as for `CC(C)(C)c1csc(NC(=O)c2ccc([N+](=O)[O-])s2)n1`, 0.32 µM.

For `CCc1c(C)nc(-n2nc(C)cc2NC(=O)COc2ccccc2F)[nH]c1=O`, the concentration for half-maximal inhibition (IC50) was 0.63 µM. The same measure, in the same setting: with `Nc1nonc1-c1nc2cncc(C(=O)N3CC[C@H](N)C3)c2n1CC1CC1` the figure was > 50 µM (inactive).

With `O=C1CN(C2CCCc3c(OCc4ccncc4)cccc32)C(=O)N1C1CCCCC1` (configuration not stated), the IC50 is 0.016 µM. Take `O=C(NC(CO)c1ccc(F)cc1)c1ccc(-c2c[nH]c3ncccc23)s1` (configuration not stated): the half-maximal inhibitory concentration (IC50) is 16 µM. The same measure, in the same setting: as for `COc1ccc(-c2cc(C)no2)cc1S(=O)(=O)Nc1ccc(C)c(C)c1`, the figure is 7.9 µM; as for `COc1ccc(-c2csc(NC(=O)c3ccc([N+](=O)[O-])s3)n2)cc1`, 0.25 µM. Same read-out and setting: as for `O=c1ccc2ccc(F)c3c2n1C[C@H]3CN1CCC(NCc2cc3ccccc3o2)CC1`, the figure is 0.2 µM; as for `CN1C(=O)c2ccccc2Sc2ccc(NC(=O)NCc3ccco3)cc21`, 13 µM; as for `Fc1ccc(Nc2nc(-c3ccccn3)cs2)cc1`, 5 µM.

As for `COc1cc(F)c2ncc(F)c(CCN3CC[C@H](NCc4cc5c(cn4)OCS5)[C@@H](O)C3)c2c1`, the IC50 was 0.25 µM. Same read-out and setting: with `CC(C)CC(=O)NC(c1cccs1)c1ccc2cccnc2c1O` (configuration not stated) the figure was 1.3 µM. As to `O=C(CCc1ccc(-c2ccccc2)o1)N1CCN(c2ccc(O)cc2)CC1`, the half-inhibitory concentration (IC50) was 1.3 µM. `O=C(CN1CCN(c2ccccn2)CC1)Nc1cc(S(=O)(=O)N2CCCCCC2)ccc1Cl`: the IC50 is 7.9 µM.

With `COc1cccc2sc(CN(C)C(=O)C3CNCCN3c3ccc(F)cc3)c(C)c12` (configuration not stated), the IC50 was 0.2 µM. For the compound `CCc1cc(C(=O)Nc2nccn2-c2ccccc2)cs1`, the IC50 is 5 µM. Same read-out and setting: with `CC1CN(S(=O)(=O)c2ccc(NC(=O)c3cc(C4CC4)nc4c3cnn4C(C)C)cc2)CC(C)O1` (configuration not stated) the figure was 0.79 µM; with `O=C(c1ccc(OCCCc2cnc[nH]2)cc1)C1CC1`, 1.6 µM; with `CCN(CC)c1nc(N(C)C)nc2c1CN(Cc1ccccc1)CC2`, 20 µM. Still for that read-out and setting: with `CN(C)Cc1ccc(N2CCC(NS(=O)(=O)c3ccc(Cl)cc3)CC2)cc1` the figure was 0.32 µM; with `CCCCn1nnnc1CSc1nc(C)cc(C)c1C#N`, 0.2 µM. Same read-out and setting: as for `O=C(NCCc1csc(-c2ccc(F)cc2)n1)c1cccs1`, the figure is 0.4 µM; as for `N#Cc1cccc(Nc2nccc(N3CCC(NS(=O)(=O)c4cccc(C#N)c4)CC3)n2)c1`, 7.9 µM. `Cc1ccc(S(=O)(=O)Nc2ccc(CN3CCN(C(=O)c4cccc(C)c4)CC3)cc2)cc1`: the IC50 was 0.32 µM. Take `Cn1nc([N+](=O)[O-])nc1N1CCCCC1`: the IC50 was 13 µM. Same read-out and setting: as for `Cc1sc(C)c(C(F)(F)F)c1CNCCCNc1cc(=O)c2ccccc2[nH]1`, the figure is 1 µM. As to `CC(C)Nc1nc(Cl)nc2ccccc12`, the IC50 is 10 µM.

As to `CC(=O)NC1(c2ccccc2)CCN(CC(=O)Nc2ccccc2-c2ccccc2)CC1`, the IC50 is 7.9 µM. Still for that read-out and setting: as for `Cc1nn(C)c(Cl)c1CN(Cc1cccnc1)Cc1ccsc1`, the figure is 0.32 µM; as for `COc1cc2c(cc1OC)[C@H]1[C@@H](C)c3ccc(OC)c(OC)c3CN1CC2`, > 50 µM (inactive); as for `Nc1nc(-c2ccccn2)nc(-n2nc(-c3ccccc3)cc2N)n1`, 2.5 µM.

Take `Cc1nc(-c2ccncc2)ncc1C(C)NC(=O)c1ccc(Cl)s1` (configuration not stated): the IC50 is 32 µM. On to `CCOC(=O)c1cn[nH]c1S(=O)(=O)N1CCC1c1ccccc1` (configuration not stated), for which the IC50 is > 50 µM (inactive).

As to `O=C(NCCc1cccnc1)c1csc(-c2ccccc2)n1`, the IC50 was 0.5 µM. Turning to `CCn1c(NC(=O)Cc2ccc(F)cc2)nc2ccccc21`, the IC50 was 7.9 µM.

Staying with this assay, now noted: measured here: H9C2 host cell toxicity.
In turn, `COc1ccc(S(=O)(=O)Nc2ccc(CN3CCN(C(=O)c4cccc(C#N)c4)CC3)cc2)cc1` showed an IC50 of more than 50 µM. As to `N#Cc1cc(-c2ccnc(Nc3cccc(CN4CCOCC4)c3)n2)ccc1NCCN`, the IC50 came to 7.9 µM. In the case of `Cc1nc(C(=O)Nc2ccc3c(c2)OCO3)nn1-c1ccc(Cl)cc1`, the IC50 is more than 50 µM. `CC(C)(C)C(O)(CCc1ccc(Cl)cc1)Cn1cncn1` (configuration not stated) registered an IC50 of more than 50 µM. `COc1ccc(S(=O)(=O)Nc2ccccc2OC)cc1NC(=O)CCCc1c[nH]c2ccccc12` came in with an IC50 of more than 50 µM. The compound `O=C(C1CCCCC1)N1CCN(c2nnc(-c3ccccc3)c3ccccc23)CC1` gave an IC50 of more than 50 µM. `COCCn1cnc2cc(NC(=O)C3CCCCC3)cc(C(=O)N3CCc4sccc4C3)c21` gave an IC50 of more than 50 µM. Still for that read-out and setting: with `CCN(Cc1nc2ccc(C(=O)N3CCN(c4ncccn4)CC3)cc2[nH]1)C1CCCc2cccnc21` (configuration not stated) the figure was 16 µM. Take `Cc1nn(-c2ccccc2)nc1CNC(=O)CN(Cc1ccccn1)Cc1ccccn1`: the IC50 amounted to 63 µM. On the same count and under the same terms, as for `Cc1cccnc1CN1CCN(CCCOc2ccc(-c3ccc(C(N)=O)cc3)cc2)CC1`, the figure is more than 50 µM.

`COc1ccc(C(=O)Nc2c(C)nn(COc3cccc(C(F)(F)F)c3)c2C)cc1` displayed an IC50 of more than 50 µM. `c1ccc(Nc2nc3ccccc3[nH]2)nc1` gave an IC50 of 10 µM. Still for that read-out and setting: with `CCN(C)Cc1ccc(N2CCC(NS(=O)(=O)c3ccc4c(c3)CCO4)CC2)nc1` the figure was more than 50 µM. On the same count and under the same terms, as for `COc1ccc2ncc(F)c(CCN3CC[C@@H](NC(=O)c4cc5c(s4)CCC5)[C@@H](O)C3)c2n1`, the figure is 0.13 µM. The same measure, in the same setting: as for `COc1ccccc1C=CCN1C[C@H]2CCC[C@@H](C1)C2(O)c1cccnc1` (some centres not stated), the figure is more than 50 µM; as for `O=C(NCC(c1cccnc1)N1CCc2ccccc2C1)C(=O)Nc1cccc(Cl)c1` (configuration not stated), 25 µM.

With `CS(=O)(=O)NC1CCC(Oc2cc3cnccc3cc2-c2ccsc2)CC1` (configuration not stated), the half-maximal inhibitory concentration (IC50) is more than 50 µM. The compound `COc1ccc(CNc2cc(C3CC3)nc(-c3nccn3C)n2)cc1` showed an IC50 of 1 µM. Same read-out and setting: with `CCN(CC)S(=O)(=O)c1ccc(OC)c(NC(=O)c2ccc([N+](=O)[O-])s2)c1` the figure was more than 50 µM. On the same count and under the same terms, as for `COc1ccc2nccc(NC(=O)C3(OC)CCN(CC(O)c4ccc5c(c4)OCCO5)CC3)c2n1` (configuration not stated), the figure is 16 µM; as for `CC(C)(C)c1csc(NC(=O)c2ccc([N+](=O)[O-])s2)n1`, 13 µM; as for `CCc1c(C)nc(-n2nc(C)cc2NC(=O)COc2ccccc2F)[nH]c1=O`, 2.5 µM. Compound `Nc1nonc1-c1nc2cncc(C(=O)N3CC[C@H](N)C3)c2n1CC1CC1` registered an IC50 of more than 50 µM. On the same count and under the same terms, with `O=C1CN(C2CCCc3c(OCc4ccncc4)cccc32)C(=O)N1C1CCCCC1` (configuration not stated) the figure was more than 50 µM; with `O=C(NC(CO)c1ccc(F)cc1)c1ccc(-c2c[nH]c3ncccc23)s1` (configuration not stated), 4 µM; with `COc1ccc(-c2cc(C)no2)cc1S(=O)(=O)Nc1ccc(C)c(C)c1`, 16 µM. The same measure, in the same setting: as for `COc1ccc(-c2csc(NC(=O)c3ccc([N+](=O)[O-])s3)n2)cc1`, the figure is 32 µM.
